Assay results as given in patent US5639726A, “Peptide mediated enhancement of thrombolysis methods and compositions” (The Regents of the University of Michigan, priority 1994, dated 1997).
Ends that are not written are not given here.

Key:
normal human plasma = test: Activated partial thromboplastin time (APTT) in normal human plasma, with porcine coronary thrombus extract; assay type: biochemical
Description: Platelets contain several factors that inhibit heparin, including platelet factor 4, heparatinase, and histidine-rich glycoprotein. In an attempt to study potential heparin resistance within the microenvironment of the coronary thrombus the coronary thrombi previously analyzed for PAI-1 content were also assessed for their capacity to inhibit heparin in vitro (Eitzman et al., 1994). Pharmaceutical grade, unfractionated heparin was added to normal human plasma in sufficient quantity (0.12 U/mL) to prolong the activated partial thromboplastin time (APTT) to approximately 2× control. APTT determinations were then repeated after the addition of 2.5 μL of thrombus extract per 100 μL of heparinized plasma.
Similar experiments were also performed using recombinant hirudin as anticoagulant. In these experiments, hirudin (0.17 μg/mL) was used to prolong the APTT to approximately twice control values. However, unlike the case with heparin, thrombus extracts had no effect on capacity of hirudin to prolong the APTT (FIG. 9a).

PAI-1 [1] = biological target: T1, PAI-1 (Homo sapiens, UniProt P05121); test: Kinetics of peptide annealing: residual PAI inhibitory activity assayed with β-trypsin and S-2222; assay type: biochemical; details: for lowest PAI-1 functional half-life obtained with increasing concentrations of peptide: 9.0 hr in the absence of peptide
T1 construct: made in house; host or cells: E. coli (vector pET3a)

PAI-1 [2] = biological target: T1, PAI-1; test: as above; assay type: biochemical; details: for IC50: FIG. 2, read-out: IC50 for the inactivation of PAI-1; for kobs / k: 25° C.; for half-life of PAI-1 decreased to: summary of Example 2, peptide concentration not given
Description: PAI-1 (6.4 μM) was incubated with increasing concentrations of each peptide at 23° C. and the (T1/2) of PAI-1 inactivation was determined by measuring the PAI-1 activity remaining over time.
Peptides were dissolved in 1 mM HCl+1% TWEEN-80 (the three PAI peptides) (SEQ ID NOS: 1-3), or in 0.1M HEPES (SEQ ID NOS: 4-5), 0.1M NaCl, 0.1% PEG-8000, pH […] (the two consensus peptides). Peptides were annealed to active PAI by incubation of active PAI in 0.1M HEPES, 0.1M NaCl, 0.1% PEG-8000, pH 7.4 with a peptide in its solvent. Ten percent of the final incubation mixture consisted of the peptide solvent. Incubation was carried out at 25° C. until no PAI inhibitory activity remained as determined by kinetics rate assays with trypsin, described below. The final concentration of PAI in the incubation mixture was either 0.9 μM (for kinetics assays) or 6.3 μM (for gels and purification). The peptide concentrations varied greatly due to the individual solubilities and rates of insertion of each peptide. These concentrations are given in the legends of the appropriate figures.
During annealing of 0.9 μM PAI with a peptide, the residual inhibitory activity of PAI was measured after varying incubation times by assaying an aliquot of the sample with β-trypsin. Trypsin (1 nM final concentration) was added to the chromogenic substrate S-2222 (950 μM) with 27 nM PAI sample. The absorbance at 405 nm was measured continuously for at least 12.5 min in a Shimadzu UV-265 UV-visible spectrophotometer. The pseudo-first order rate constant of trypsin is an indirect measure of the amount of PAI that has lost inhibitory activity due either to annealing or to becoming latent. The rate constant of controls containing the peptide solvent but no peptide was subtracted from that of the experimental assays in order to correct for the effect of the simultaneous change of PAI from the active to the latent state.

PAI-1 [3] = biological target: T1, PAI-1; test: Native gel electrophoresis of PAI incubated with peptide; assay type: binding
Description: SDS-polyacrylamide gel electrophoresis (SDS-PAGE) under nonreducing conditions was carried out according to the method of Laemmli (Laemmli, 1970) on 10% gels. Native gel electrophoresis with 5% gels was carried out by omitting SDS and boiling from Laemmli's method. All gels were stained with Coomassie brilliant blue. Gels of PAI-peptide samples were scanned with an LKB Ultroscan XL Laser Densitometer to determine the relative amounts of peptide-annealed and latent PAI.
Four of the five peptides have a net negative charge due to glutamic acid residues and the free carboxy terminus (FIG. 1). The wtPAI 8-mer has a net -1 charge (the carboxy terminus). The V→E PAI 8-mer (SEQ ID NO:3) and consensus 8-mer (SEQ ID NO:4) each have a -2 charge (the glutamic acid residue and the carboxyl group). […] The PAI 14-mer (SEQ ID NO:1) is uncharged since it contains no glutamic acid and the arginine and carboxyl groups neutralize each other. Because of the negative charges of 4 of the peptides, native gels of PAI annealed to these peptides should show a band which migrates more quickly than the band representative of free active PAI. Similarly, if one of these peptides is incubated with PAI but fails to form a strong interaction with PAI, native gels should show a band which migrates identically to the free PAI.

T1 sequence (P05121 24-402): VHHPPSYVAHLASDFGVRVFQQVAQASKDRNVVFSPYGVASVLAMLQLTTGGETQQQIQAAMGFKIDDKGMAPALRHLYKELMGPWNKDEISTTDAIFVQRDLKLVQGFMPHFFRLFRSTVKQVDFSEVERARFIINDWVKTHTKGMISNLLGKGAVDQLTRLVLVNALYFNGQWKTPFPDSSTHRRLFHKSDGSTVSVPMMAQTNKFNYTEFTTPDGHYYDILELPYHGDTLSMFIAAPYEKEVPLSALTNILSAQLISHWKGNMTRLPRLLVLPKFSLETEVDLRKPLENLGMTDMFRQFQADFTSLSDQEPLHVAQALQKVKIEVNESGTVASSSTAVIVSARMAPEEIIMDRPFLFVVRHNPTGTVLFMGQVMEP

heparin
shortening of the APTT by thrombus extract (normal human plasma; 2.5 μL of thrombus extract per 100 μL of heparinized plasma): approximately 20 seconds
prolongation of the APTT (normal human plasma; heparin 0.12 U/mL): approximately 2 × control

Ac-TEAAAATG [SEQ ID NO: 4, Thr-Glu-Ala-Ala-Ala-Ala-Thr-Gly]
lowest PAI-1 functional half-life obtained with increasing concentrations of peptide (PAI-1 [1]; 25° C.): 1.2 h
k (PAI-1 [1]; peptide 1.5 mM, 25° C.): .024 M⁻¹ s⁻¹
kobs (PAI-1 [1]; peptide 1.5 mM, 25° C.): .13 h⁻¹
t1/2 of PAI-1 inactivation (PAI-1 [1]; peptide 1.5 mM, 25° C.): 5.4 h
k (PAI-1 [1]; peptide 2.5 mM, 25° C.): .024 M⁻¹ s⁻¹
t1/2 of PAI-1 inactivation (PAI-1 [1]; peptide 2.5 mM, 25° C.): 3.3 h
k (PAI-1 [1]; peptide 3.5 mM, 25° C.): .022 M⁻¹ s⁻¹
kobs (PAI-1 [1]; peptide 3.5 mM, 25° C.): .28 h⁻¹
t1/2 of PAI-1 inactivation (PAI-1 [1]; peptide 3.5 mM, 25° C.): 2.5 h
k (PAI-1 [1]; peptide 5.04 mM, 25° C.): .021 M⁻¹ s⁻¹
t1/2 of PAI-1 inactivation (PAI-1 [1]; peptide 5.04 mM, 25° C.): 1.8 h
k (PAI-1 [1]; peptide 7 mM, 25° C.): .017 M⁻¹ s⁻¹
kobs (PAI-1 [1]; peptide 7 mM, 25° C.): .44 h⁻¹
t1/2 of PAI-1 inactivation (PAI-1 [1]; peptide 7 mM, 25° C.): 1.6 h
k (PAI-1 [1]; peptide 9 mM, 25° C.): .017 M⁻¹ s⁻¹
kobs (PAI-1 [1]; peptide 9 mM, 25° C.): .54 h⁻¹
t1/2 of PAI-1 inactivation (PAI-1 [1]; peptide 9 mM, 25° C.): 1.3 h
k (PAI-1 [1]; peptide 11 mM, 25° C.): .015 M⁻¹ s⁻¹
kobs (PAI-1 [1]; peptide 11 mM, 25° C.): .58 h⁻¹
t1/2 of PAI-1 inactivation (PAI-1 [1]; peptide 11 mM, 25° C.): 1.2 h
IC50 (PAI-1 [2]): 1.6 mM
kobs (PAI-1 [2]; peptide 2.5 mM): .21 h⁻¹
kobs (PAI-1 [2]; peptide 5.04 mM): .38 h⁻¹
half-life of PAI-1 decreased to (PAI-1 [2]): 78 min

Ac-TVASSSTA [SEQ ID NO: 2, Thr-Val-Ala-Ser-Ser-Ser-Thr-Ala]
lowest PAI-1 functional half-life obtained with increasing concentrations of peptide (PAI-1 [1]; 25° C.): 0.7 h
t1/2 of PAI-1 (PAI-1 [1]; peptide 55 μM, 25° C.): over 400 min
k (PAI-1 [1]; peptide .015 mM, 25° C.): 1.7 M⁻¹ s⁻¹
kobs (PAI-1 [1]; peptide .015 mM, 25° C.): .093 h⁻¹
t1/2 of PAI-1 inactivation (PAI-1 [1]; peptide .015 mM, 25° C.): 7.5 h
k (PAI-1 [1]; peptide .025 mM, 25° C.): .99 M⁻¹ s⁻¹
kobs (PAI-1 [1]; peptide .025 mM, 25° C.): .089 h⁻¹
t1/2 of PAI-1 inactivation (PAI-1 [1]; peptide .025 mM, 25° C.): 7.8 h
k (PAI-1 [1]; peptide .045 mM, 25° C.): 6.9 M⁻¹ s⁻¹
kobs (PAI-1 [1]; peptide .045 mM, 25° C.): 1.1 h⁻¹
t1/2 of PAI-1 inactivation (PAI-1 [1]; peptide .045 mM, 25° C.): .62 h
k (PAI-1 [1]; peptide .064 mM, 25° C.): 42 M⁻¹ s⁻¹
kobs (PAI-1 [1]; peptide .064 mM, 25° C.): 9.6 h⁻¹
t1/2 of PAI-1 inactivation (PAI-1 [1]; peptide .064 mM, 25° C.): .072 h
electrophoretic mobility of active PAI incubated with peptide, native gel (PAI-1 [3]): two bands
IC50 (PAI-1 [2]): 0.23 mM
half-life of PAI-1 decreased to (PAI-1 [2]): 43 min

Ac-TEASSSTA [SEQ ID NO: 3, Thr-Glu-Ala-Ser-Ser-Ser-Thr-Ala]
lowest PAI-1 functional half-life obtained with increasing concentrations of peptide (PAI-1 [1]; 25° C.): 1.2 h
k (PAI-1 [1]; peptide .05 mM, 25° C.): .50 M⁻¹ s⁻¹
t1/2 of PAI-1 inactivation (PAI-1 [1]; peptide .05 mM, 25° C.): 7.7 h
kobs (PAI-1 [1]; peptide .1 mM, 25° C.): .13 h⁻¹
t1/2 of PAI-1 inactivation (PAI-1 [1]; peptide .1 mM, 25° C.): 5.5 h
k (PAI-1 [1]; peptide .15 mM, 25° C.): .37 M⁻¹ s⁻¹
kobs (PAI-1 [1]; peptide .15 mM, 25° C.): .20 h⁻¹
t1/2 of PAI-1 inactivation (PAI-1 [1]; peptide .15 mM, 25° C.): 3.5 h
k (PAI-1 [1]; peptide .2 mM, 25° C.): .40 M⁻¹ s⁻¹
kobs (PAI-1 [1]; peptide .2 mM, 25° C.): .28 h⁻¹
t1/2 of PAI-1 inactivation (PAI-1 [1]; peptide .2 mM, 25° C.): 2.4 h
k (PAI-1 [1]; peptide .246 mM, 25° C.): .37 M⁻¹ s⁻¹
t1/2 of PAI-1 inactivation (PAI-1 [1]; peptide .246 mM, 25° C.): 2.1 h
k (PAI-1 [1]; peptide .3 mM, 25° C.): .39 M⁻¹ s⁻¹
kobs (PAI-1 [1]; peptide .3 mM, 25° C.): .42 h⁻¹
t1/2 of PAI-1 inactivation (PAI-1 [1]; peptide .3 mM, 25° C.): 1.7 h
kobs (PAI-1 [1]; peptide .4 mM, 25° C.): .48 h⁻¹
t1/2 of PAI-1 inactivation (PAI-1 [1]; peptide .4 mM, 25° C.): 1.4 h
k (PAI-1 [1]; peptide .5 mM, 25° C.): .44 M⁻¹ s⁻¹
kobs (PAI-1 [1]; peptide .5 mM, 25° C.): .79 h⁻¹
t1/2 of PAI-1 inactivation (PAI-1 [1]; peptide .5 mM, 25° C.): .87 h
k (PAI-1 [1]; peptide .6 mM, 25° C.): .45 M⁻¹ s⁻¹
t1/2 of PAI-1 inactivation (PAI-1 [1]; peptide .6 mM, 25° C.): .71 h
electrophoretic mobility of active PAI incubated with peptide, native gel (PAI-1 [3]): Only a single major band
IC50 (PAI-1 [2]): 1.6 mM
kobs (PAI-1 [2]; peptide .05 mM): .090 h⁻¹
k (PAI-1 [2]; peptide .1 mM): .35 M⁻¹ s⁻¹
kobs (PAI-1 [2]; peptide .246 mM): .33 h⁻¹
k (PAI-1 [2]; peptide .4 mM): .33 M⁻¹ s⁻¹
kobs (PAI-1 [2]; peptide .6 mM): .98 h⁻¹
half-life of PAI-1 decreased to (PAI-1 [2]): 72 min

Ac-TEAAAATGAAATGR [SEQ ID NO: 5, TEAAAATGAAATGR]
half-life of PAI inactivation (PAI-1 [1]; 0.9 μM PAI, 1.2 mM peptide): about 12 min
k (PAI-1 [1]; peptide 1 mM, 25° C.): .027 M⁻¹ s⁻¹
t1/2 of PAI-1 inactivation (PAI-1 [1]; peptide 1 mM, 25° C.): 7.2 h
k (PAI-1 [1]; peptide 1.3 mM, 25° C.): .75 M⁻¹ s⁻¹
kobs (PAI-1 [1]; peptide 1.3 mM, 25° C.): 3.4 h⁻¹
t1/2 of PAI-1 inactivation (PAI-1 [1]; peptide 1.3 mM, 25° C.): .20 h
kobs (PAI-1 [2]; peptide 1 mM): .097 h⁻¹
half-life of PAI-1 decreased to (PAI-1 [2]): 12 min

hirudin
effect of thrombus extracts on capacity to prolong the APTT (normal human plasma; hirudin 0.17 μg/mL): no effect
prolongation of the APTT (normal human plasma; hirudin 0.17 μg/mL): approximately twice
